# Test results reported in paper PMC12459184, “Design, synthesis, and bioevaluation of pyrazole-containing tubulin polymerisation inhibitors based on conformational constraint strategy” (Journal of Enzyme Inhibition and Medicinal Chemistry, 2025).
# Where two headings read alike, the source gives them in different places.
# Tested on: PC-3 cell line
# Assay: MTT cell viability after 24 h
# Type: cell-based
# Details: Homo sapiens, read-out: cell viability
# Method: An MTT assay was made on PC-3 cell line to test the cell viability after treated with different concentrations of compounds 4k and 5a after 24 h which was the same period as immunofluorescence assay.
SMILES,"viability at 0.00051 µM (PC-3, MTT, 24 h, 0.51 nM)","viability at 1.111 µM (PC-3, MTT, 24 h, 1111 nM)","viability at 0.00051 µM (PC-3, 24 h)","viability at 1.111 µM (PC-3, 24 h)"
"COc1cc(C(=O)c2nn(-c3ccc(N)cc3)cc2N)cc(OC)c1OC [4k, (4-amino-1–(4-aminophenyl)-1H-pyrazol-3-yl)(3,4,5-trimethoxyphenyl)methanone]",91.6%,41.6%,–,–
"COc1cc(C2=NCC(=O)Nc3cn(-c4ccccc4)nc32)cc(OC)c1OC [5a, 2-Phenyl-8–(3,4,5-trimethoxyphenyl)-2,6-dihydropyrazolo[4,3-e][1,4]diazepin-5(4H)-one]",–,–,76.6%,39.6%
